Measurements published in publication PMC11649115, “In vitro safety evaluation of dopamine D3R antagonist, R-VK4-116, as a potential medication for the treatment of opioid use disorder” (PLOS ONE, 2024).
Where “and” joins values, the source holds several entries; their conditions need not be identical. Identical values can stand only once. Like-named read-outs stand apart in the source and are kept apart here.

Legend:
[1] = target: T1, TNK1 (Homo sapiens, UniProt Q13470); test: KINOMEscan binding (% Ctrl, Kd)
T1 construct: made in house; host or cells: E. coli BL21-derived host (T7 phage) or HEK-293
T1 sequence (Q13470 1-666): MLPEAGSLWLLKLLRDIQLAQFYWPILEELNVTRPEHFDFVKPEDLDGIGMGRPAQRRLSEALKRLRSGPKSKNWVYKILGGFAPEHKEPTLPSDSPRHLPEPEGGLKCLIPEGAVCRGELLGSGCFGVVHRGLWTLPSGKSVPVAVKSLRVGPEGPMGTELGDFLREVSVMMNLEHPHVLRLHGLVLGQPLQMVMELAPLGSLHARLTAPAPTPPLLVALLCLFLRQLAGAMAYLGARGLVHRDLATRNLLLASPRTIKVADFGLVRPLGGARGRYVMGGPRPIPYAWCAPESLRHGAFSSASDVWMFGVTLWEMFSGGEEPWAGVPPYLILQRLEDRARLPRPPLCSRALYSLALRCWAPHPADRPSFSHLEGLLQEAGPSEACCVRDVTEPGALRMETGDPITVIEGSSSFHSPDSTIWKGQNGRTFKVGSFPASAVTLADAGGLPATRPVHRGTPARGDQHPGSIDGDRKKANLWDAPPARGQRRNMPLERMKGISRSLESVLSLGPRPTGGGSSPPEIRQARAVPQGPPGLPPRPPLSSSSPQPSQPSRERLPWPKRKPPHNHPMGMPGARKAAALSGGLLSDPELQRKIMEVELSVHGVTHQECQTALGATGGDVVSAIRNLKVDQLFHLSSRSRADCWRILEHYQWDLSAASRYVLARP
Procedure: Briefly, E. coli host derived from the BL21 strain were grown to log-phase and infected with kinase-tagged T7 phage and incubated with shaking at 32°C until lysis. The lysates were centrifuged and filtered to remove cell debris. The remaining kinases were produced in HEK-293 cells and subsequently tagged with DNA for qPCR detection. Streptavidin-coated magnetic beads were treated with biotinylated small molecule ligands to generate affinity resins for kinase assays. The liganded beads were blocked with excess biotin and washed to remove unbound ligand and to reduce non-specific phage binding. […] Selectivity Score (S-score) was a quantitative measure of compound selectivity. […] The binding constants (Kds) were also determined with a standard dose-response curve using the Hill equation and Levenberg-Marquardt algorithm [24, 25].

[2] = target: T2, Kir2.1 (Homo sapiens, UniProt P63252); test: CiPA IonChannelProfiler Cardiac Panel, QPatch; format: cell-based; conditions: Kir2.1, 100 μM
T2 sequence (P63252 1-427): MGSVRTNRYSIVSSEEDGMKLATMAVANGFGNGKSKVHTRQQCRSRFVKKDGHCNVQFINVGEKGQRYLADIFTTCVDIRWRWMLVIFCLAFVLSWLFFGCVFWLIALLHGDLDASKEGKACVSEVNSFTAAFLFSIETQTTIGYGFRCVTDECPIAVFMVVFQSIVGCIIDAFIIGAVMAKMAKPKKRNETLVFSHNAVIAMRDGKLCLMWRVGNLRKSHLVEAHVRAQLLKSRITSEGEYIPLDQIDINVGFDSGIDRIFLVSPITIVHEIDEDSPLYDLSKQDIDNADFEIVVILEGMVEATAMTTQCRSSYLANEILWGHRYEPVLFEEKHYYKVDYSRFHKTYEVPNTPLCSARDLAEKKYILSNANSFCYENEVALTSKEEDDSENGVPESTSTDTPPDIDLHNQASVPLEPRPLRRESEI

[3] = system: oxycodone self-administration; set-up: method as in PMID 30555159; conditions: rodents, 5, 15 and 25 mg/kg ref 6; cited from earlier work
[4] = system: plasma proteins; test: Plasma protein binding, Sephadex G-25 gel filtration; format: in vitro ADME, human; conditions: human, plasma, human plasma, nominal 1 μM; read-out: % Bound, Mean ± SD (converted)
Procedure: (§1) The gel filtration used solid-phase extraction columns containing hydrated gel filtration beads (Sephadex G-25). […] In this method, the amount of analyte accompanying the proteins (i.e., protein-bound R-VK4-116) before and after filtration was assayed for analyte concentration by LC-MS/MS.

[5] = as above; format: in vitro ADME, human; conditions: human, plasma; for fraction unbound at 2 h, 0.5 μM: human plasma, nominal 0.5 μM
Procedure: as §1

[6] = system: human plasma proteins; test: as above; format: in vitro ADME; conditions: human plasma
Procedure: as §1

[7] = target: T3, OCT2 (Homo sapiens, UniProt O15244); test: Transporter mediated assay (substrate/inhibitor), MDCK-II cells; format: in vitro ADME
T3 construct: expressed in transfected cells; host or cells: MDCK-II cells
T3 sequence (O15244 1-555): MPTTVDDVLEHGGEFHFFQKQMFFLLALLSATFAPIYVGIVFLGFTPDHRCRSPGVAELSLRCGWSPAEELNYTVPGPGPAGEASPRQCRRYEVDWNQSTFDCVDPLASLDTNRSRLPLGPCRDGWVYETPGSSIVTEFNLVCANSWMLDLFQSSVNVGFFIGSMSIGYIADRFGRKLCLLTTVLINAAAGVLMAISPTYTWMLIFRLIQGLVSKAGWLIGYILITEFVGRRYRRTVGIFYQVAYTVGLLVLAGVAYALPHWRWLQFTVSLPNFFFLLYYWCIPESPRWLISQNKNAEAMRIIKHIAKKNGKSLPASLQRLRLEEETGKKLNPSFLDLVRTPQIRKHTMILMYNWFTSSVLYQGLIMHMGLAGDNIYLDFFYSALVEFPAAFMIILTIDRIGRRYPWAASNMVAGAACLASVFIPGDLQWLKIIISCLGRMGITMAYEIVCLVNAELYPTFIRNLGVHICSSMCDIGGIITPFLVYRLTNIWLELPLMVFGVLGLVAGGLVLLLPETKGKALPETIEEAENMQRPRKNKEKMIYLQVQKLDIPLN
Procedure: The MDCK-II cells were treated to express the transporter of interest. The transport of each probe substrate was determined by radiometric detection (Fig 1 in S1 File). […] For the uptake assay, the net transporter-mediated uptake-rate (V) of the substrate by each SLC transporter was calculated as follows: Transporter–mediatedupdaterate(pmol/min/cm^2)=(Cellularaccumulationincellsexpressingthetransporter)−(Meancellularaccumulationincontrolcells)/Surfacearea×incubationtime
Fold of activity and percent inhibition were determined as follows: Foldofactivity=(Meanuptakerate)transporterexpressingcells/(Meanuptakerate)controlcells Percentinhibition=100−100×(Transport‐mediatedupdaterate)withinhibitor/(Transport‐mediatedupdaterate)vehiclecontrol

[8] = Metabolic stability in hepatocyte; conditions: Beagle, dog, hepatocytes in suspension
Procedure: (§2) CYP3A4 substrate Midazolam (10 μM) was prepared and incubated in the same manner. […] In addition, in vitro half-life (t1/2, min) and intrinsic clearance (CLint, μl/min/10^6 cells) were calculated [10, 11].

[9] = system: dog hepatocytes; test: Metabolic stability in hepatocyte; conditions: dog hepatocytes
Procedure: as §2

## CCc1cc(Cl)c(OC)c(N2CCN(CC(O)CCNC(=O)c3cc4ccccc4[nH]3)CC2)c1 (stereo not drawn) [R-VK4-116, N-(4-(4-(3-chloro-5-ethyl-2-methoxyphenyl)piperazin-1-yl)-3-hydroxybutyl)-1H-indole-2-carboxamide]
[1]; 11-point curve 0.001 to 10 μM, read-out: binding constant (Kd)
  Kd: > 10 µM
[1]; read-out: %Control
  remaining binding at 1 µM: < 35%
[1]; read-out: Gene (S-score with % control): TNK1
  remaining binding at 1 µM: 17%
[2]; read-out: inhibition, End
  inhibition at 100 µM: 97.2%
[2]; read-out: inhibition, Peak
  inhibition at 100 µM: 52.6%
[3]
  oxycodone self-administration: decreased
[4]
  fraction unbound at 2 h, 1 μM: 0.141
[5]; read-out: % Bound (converted)
  fraction unbound at 2 h, 0.5 μM: 0.026
[5]; read-out: % Bound, Mean ± SD (converted)
  fraction unbound at 2 h, 0.5 μM: 0.028
[5]; rat, dog, range over human, rat and dog plasma, read-out: bound to plasma proteins
  fraction unbound at 2 h: 0.07 to 0.17
[6]; nominal 0.5 μM
  % Bound: 96.9%
  Ratio [R-VK4-116] Before Filtration / Eluate, Mean ± SD: 0.988 ± 0.13
  [R-VK4-116] Before Filtration: 0.550 µM and 0.597 µM and 0.598 µM
  [R-VK4-116] In Sephadex G-25 Eluate: 0.520 µM and 0.715 µM and 0.557 µM
[6]; nominal 1 μM
  % Bound: 92.5% and 81.6% and 83.7%
  Ratio [R-VK4-116] Before Filtration / Eluate: 1.50 and 1.62 and 1.55
  Ratio [R-VK4-116] Before Filtration / Eluate, Mean ± SD: 1.56 ± 0.06
  [R-VK4-116] Before Filtration: 0.923 µM and 0.995 µM and 1.02 µM
  [R-VK4-116] In Sephadex G-25 Eluate: 0.614 µM and 0.615 µM and 0.657 µM
[7]; OCT2, 1 μM, transporter cells vs control cells
  fold difference in mean uptake rate (substrate test): < 2 fold
[7]; OCT2, 0.1% BSA, 10 μM
  Inhibition (%): no statistically significant inhibition
[7]; human, polarized monolayer of MDCK-II cells expressing OCT2, OCT2, 0.1% BSA, 10 μM
  inhibition at 10 µM: -17.4 ± 1.88%
[8]
  half-life at 0.5 μM: 1.52 h
  half-life at 10 μM: 5.78 h
  hepatocyte CLint at 0.5 μM: 15.2 µL/min/1e6 cells
  hepatocyte CLint at 10 μM: 4 µL/min/1e6 cells
[9]; 0.5 μM, 0 min
  % remaining Vs T = 0 min: 100.0%
[9]; 0.5 μM, 30 min
  % remaining Vs T = 0 min: 71.2%
[9]; 0.5 μM, 60 min
  % remaining Vs T = 0 min: 61.2%
[9]; 0.5 μM, 90 min
  % remaining Vs T = 0 min: 45.4%
[9]; 0.5 μM, 120 min
  % remaining Vs T = 0 min: 40.1%
[9]; 10 μM, 0 min
  % remaining Vs T = 0 min: 100.0%
[9]; 10 μM, 30 min
  % remaining Vs T = 0 min: 85.3%
[9]; 10 μM, 60 min
  % remaining Vs T = 0 min: 85.5%
[9]; 10 μM, 90 min
  % remaining Vs T = 0 min: 80.3%
[9]; 10 μM, 120 min
  % remaining Vs T = 0 min: 76.4%
